Assay results: patent US10351548B2, “2-oxo-1,2-dihydropyridine-3-carboxamide compounds and their use as inhibitors of PDK1” (INTERNATIONAL SOCIETY FOR DRUG DEVELOPMENT S.R.L., priority 2015, dated 2019)
Read-outs that look alike come from different tables or passages of the source.

Columns and labels:
Assay in all cases: IB35 kinases profiling at 100 nM (ZLYTE)
Assay type in all cases: biochemical
ABL1 = ABL1 (Homo sapiens (Human), UniProt P00519); conditions: IB35 100 nM, ATP Km app
Excerpt: (§1) The results are reported below

AKT2 (PKB beta) = AKT2 (PKB beta) (Homo sapiens (Human), UniProt P31751); conditions: IB35 100 nM, ATP Km app
Excerpt: as §1

AMPK A1/B1/G1 = AMPK A1/B1/G1 (Homo sapiens (Human), UniProt Q13131); conditions: IB35 100 nM, ATP Km app
Excerpt: as §1

AURKA (Aurora A) = AURKA (Aurora A) (Homo sapiens (Human), UniProt O14965); conditions: IB35 100 nM, ATP Km app
Excerpt: as §1

BRAF = BRAF (Homo sapiens (Human), UniProt P15056); conditions: IB35 100 nM, ATP 100
Chain of BRAF (P15056 whole entry): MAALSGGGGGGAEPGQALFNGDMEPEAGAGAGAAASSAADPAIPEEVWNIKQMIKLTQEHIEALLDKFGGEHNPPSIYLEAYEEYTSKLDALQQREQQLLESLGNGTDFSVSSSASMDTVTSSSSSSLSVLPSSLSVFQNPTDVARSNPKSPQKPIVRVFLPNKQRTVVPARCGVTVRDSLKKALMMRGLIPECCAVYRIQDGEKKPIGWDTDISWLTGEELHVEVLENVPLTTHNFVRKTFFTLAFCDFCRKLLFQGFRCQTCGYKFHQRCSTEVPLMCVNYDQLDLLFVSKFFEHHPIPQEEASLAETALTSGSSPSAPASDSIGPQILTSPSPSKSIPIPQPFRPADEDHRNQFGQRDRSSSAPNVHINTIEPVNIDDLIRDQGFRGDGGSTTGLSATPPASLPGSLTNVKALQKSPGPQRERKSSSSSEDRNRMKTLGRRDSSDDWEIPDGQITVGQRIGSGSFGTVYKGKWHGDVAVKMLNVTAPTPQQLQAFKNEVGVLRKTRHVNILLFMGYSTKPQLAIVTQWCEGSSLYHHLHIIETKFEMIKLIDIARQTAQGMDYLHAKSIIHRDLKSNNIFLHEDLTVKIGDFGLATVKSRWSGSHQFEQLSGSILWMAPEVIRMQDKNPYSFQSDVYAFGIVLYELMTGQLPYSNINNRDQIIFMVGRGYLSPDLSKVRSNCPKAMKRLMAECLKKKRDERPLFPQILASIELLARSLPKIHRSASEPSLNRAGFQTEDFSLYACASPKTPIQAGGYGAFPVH
Excerpt: as §1

CDC42 BPA (MRCKA) = CDC42 BPA (MRCKA) (Homo sapiens (Human), UniProt Q5VT25); conditions: IB35 100 nM, ATP Km app
Excerpt: as §1

CDK5/p25 = CDK5/p25 (Homo sapiens (Human), UniProt Q00535); conditions: IB35 100 nM, ATP Km app
Excerpt: as §1

CHEK1 (CHK1) = CHEK1 (CHK1) (Homo sapiens (Human), UniProt O14757); conditions: IB35 100 nM, ATP Km app
Excerpt: as §1

CHEK2 (CHK2) = CHEK2 (CHK2) (Homo sapiens (Human), UniProt O96017); conditions: IB35 100 nM, ATP Km app
Excerpt: as §1

CLK1 = CLK1 (Homo sapiens (Human), UniProt P49759); conditions: IB35 100 nM, ATP Km app
Excerpt: as §1

GRK5 = GRK5 (Homo sapiens (Human), UniProt P34947); conditions: IB35 100 nM, ATP Km app
Excerpt: as §1

GSK3B (GSK3 beta) = GSK3B (GSK3 beta) (Homo sapiens (Human), UniProt P49841); conditions: IB35 100 nM, ATP Km app
Chain of GSK3B (GSK3 beta) (P49841 whole entry, species assumed): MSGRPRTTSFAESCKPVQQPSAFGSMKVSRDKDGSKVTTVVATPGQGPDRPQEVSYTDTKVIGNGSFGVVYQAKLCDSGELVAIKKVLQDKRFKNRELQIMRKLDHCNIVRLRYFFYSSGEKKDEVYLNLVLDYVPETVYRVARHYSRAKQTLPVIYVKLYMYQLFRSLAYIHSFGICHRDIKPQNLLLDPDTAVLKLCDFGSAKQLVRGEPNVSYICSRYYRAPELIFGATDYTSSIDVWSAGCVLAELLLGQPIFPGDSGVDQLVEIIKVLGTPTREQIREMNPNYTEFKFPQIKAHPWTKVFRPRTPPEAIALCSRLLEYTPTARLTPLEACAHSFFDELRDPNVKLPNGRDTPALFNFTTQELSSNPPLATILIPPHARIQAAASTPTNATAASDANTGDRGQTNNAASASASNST
Excerpt: as §1

ITK = ITK (Homo sapiens (Human), UniProt Q08881); conditions: IB35 100 nM, ATP Km app
Chain of ITK (Q08881 whole entry, species assumed): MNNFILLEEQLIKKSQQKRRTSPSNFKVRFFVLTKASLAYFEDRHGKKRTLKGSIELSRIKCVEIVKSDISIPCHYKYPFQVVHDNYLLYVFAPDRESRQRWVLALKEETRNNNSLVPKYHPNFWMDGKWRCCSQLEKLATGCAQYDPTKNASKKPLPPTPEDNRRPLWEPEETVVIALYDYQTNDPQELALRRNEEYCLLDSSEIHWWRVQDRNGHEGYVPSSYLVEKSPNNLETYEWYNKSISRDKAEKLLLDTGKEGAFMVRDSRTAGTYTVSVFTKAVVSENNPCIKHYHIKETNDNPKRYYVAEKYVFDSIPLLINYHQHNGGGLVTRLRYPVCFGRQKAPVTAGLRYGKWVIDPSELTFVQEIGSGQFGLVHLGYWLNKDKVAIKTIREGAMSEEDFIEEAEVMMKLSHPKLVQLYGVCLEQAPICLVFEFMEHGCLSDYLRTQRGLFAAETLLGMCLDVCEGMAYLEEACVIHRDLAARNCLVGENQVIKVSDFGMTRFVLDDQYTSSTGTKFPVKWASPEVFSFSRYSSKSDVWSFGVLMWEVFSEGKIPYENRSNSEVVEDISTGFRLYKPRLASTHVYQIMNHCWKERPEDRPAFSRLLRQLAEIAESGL
Excerpt: as §1

LCK = LCK (Homo sapiens (Human), UniProt P06239); conditions: IB35 100 nM, ATP Km app
Excerpt: as §1

MAP2K2 (MEK2) = MAP2K2 (MEK2) (Homo sapiens (Human), UniProt P36507); conditions: IB35 100 nM, ATP 100
Excerpt: as §1

MAPK3 (ERK1) = MAPK3 (ERK1) (Homo sapiens (Human), UniProt P27361); conditions: IB35 100 nM, ATP Km app
Chain of MAPK3 (ERK1) (P27361 whole entry, species assumed): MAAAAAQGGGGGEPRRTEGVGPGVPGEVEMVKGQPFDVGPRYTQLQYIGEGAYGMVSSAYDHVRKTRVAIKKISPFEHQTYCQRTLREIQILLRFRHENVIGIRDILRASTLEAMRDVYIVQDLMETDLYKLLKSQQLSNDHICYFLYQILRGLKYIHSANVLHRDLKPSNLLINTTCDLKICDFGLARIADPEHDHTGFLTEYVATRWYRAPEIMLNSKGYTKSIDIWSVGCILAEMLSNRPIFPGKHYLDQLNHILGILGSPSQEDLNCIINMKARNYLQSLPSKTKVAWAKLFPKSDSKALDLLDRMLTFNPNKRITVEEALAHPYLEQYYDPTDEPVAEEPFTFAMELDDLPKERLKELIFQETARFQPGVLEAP
Excerpt: as §1

MAPKAPK2 = MAPKAPK2 (Homo sapiens (Human), UniProt P49137); conditions: IB35 100 nM, ATP Km app
Excerpt: as §1

MARK1 (MARK) = MARK1 (MARK) (Homo sapiens (Human), UniProt Q9P0L2); conditions: IB35 100 nM, ATP Km app
Chain of MARK1 (MARK) (Q9P0L2 whole entry, species assumed): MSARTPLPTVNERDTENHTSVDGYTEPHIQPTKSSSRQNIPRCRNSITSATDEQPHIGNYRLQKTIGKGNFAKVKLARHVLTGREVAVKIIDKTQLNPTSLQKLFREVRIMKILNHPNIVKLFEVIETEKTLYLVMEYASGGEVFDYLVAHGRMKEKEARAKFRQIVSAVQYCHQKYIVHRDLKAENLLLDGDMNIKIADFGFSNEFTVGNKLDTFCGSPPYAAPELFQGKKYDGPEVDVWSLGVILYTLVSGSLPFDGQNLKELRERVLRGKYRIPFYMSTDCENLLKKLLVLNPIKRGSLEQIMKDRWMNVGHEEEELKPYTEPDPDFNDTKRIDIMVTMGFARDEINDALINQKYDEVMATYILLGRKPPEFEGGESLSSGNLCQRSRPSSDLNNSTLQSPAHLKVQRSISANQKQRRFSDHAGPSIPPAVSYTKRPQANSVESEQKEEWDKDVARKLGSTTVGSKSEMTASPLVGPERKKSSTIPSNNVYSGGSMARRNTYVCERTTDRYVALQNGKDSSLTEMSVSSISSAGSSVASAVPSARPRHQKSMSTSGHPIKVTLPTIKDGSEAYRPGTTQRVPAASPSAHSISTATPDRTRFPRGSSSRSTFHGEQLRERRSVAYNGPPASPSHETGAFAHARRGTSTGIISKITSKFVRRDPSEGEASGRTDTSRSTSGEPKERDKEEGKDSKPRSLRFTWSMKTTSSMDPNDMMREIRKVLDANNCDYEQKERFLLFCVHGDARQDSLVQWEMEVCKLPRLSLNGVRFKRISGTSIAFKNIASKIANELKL
Excerpt: as §1

PRKACA (PKA) = PRKACA (PKA) (Homo sapiens (Human), UniProt P17612); conditions: IB35 100 nM, ATP Km app
Excerpt: as §1

PRKCB1 (PKC beta I) = PRKCB1 (PKC beta I) (Homo sapiens (Human), UniProt P05771); conditions: IB35 100 nM, ATP Km app
Chain of PRKCB1 (PKC beta I) (P05771 whole entry, species assumed): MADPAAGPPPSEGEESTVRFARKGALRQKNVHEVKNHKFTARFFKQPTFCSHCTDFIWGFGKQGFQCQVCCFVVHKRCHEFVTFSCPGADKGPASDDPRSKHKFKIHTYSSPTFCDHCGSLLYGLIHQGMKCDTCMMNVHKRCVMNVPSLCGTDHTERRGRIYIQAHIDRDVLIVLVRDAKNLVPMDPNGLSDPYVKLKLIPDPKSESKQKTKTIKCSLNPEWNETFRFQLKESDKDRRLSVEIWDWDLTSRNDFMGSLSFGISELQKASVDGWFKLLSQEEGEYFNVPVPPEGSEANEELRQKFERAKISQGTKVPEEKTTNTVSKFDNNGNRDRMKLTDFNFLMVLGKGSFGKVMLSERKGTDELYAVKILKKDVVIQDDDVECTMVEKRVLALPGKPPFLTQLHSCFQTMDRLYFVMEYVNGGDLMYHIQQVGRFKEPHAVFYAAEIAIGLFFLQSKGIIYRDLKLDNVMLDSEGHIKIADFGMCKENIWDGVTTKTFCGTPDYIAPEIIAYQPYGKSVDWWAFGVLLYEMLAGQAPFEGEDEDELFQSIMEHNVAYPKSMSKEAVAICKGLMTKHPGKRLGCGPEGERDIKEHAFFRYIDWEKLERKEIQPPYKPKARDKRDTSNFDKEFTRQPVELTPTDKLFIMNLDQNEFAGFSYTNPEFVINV
Excerpt: as §1

PRKCD (PKC delta) = PRKCD (PKC delta) (Homo sapiens (Human), UniProt Q05655); conditions: IB35 100 nM, ATP Km app
Excerpt: as §1

PRKCE (PKC epsilon) = PRKCE (PKC epsilon) (Homo sapiens (Human), UniProt Q02156); conditions: IB35 100 nM, ATP Km app
Excerpt: as §1

PRKCZ (PKC zeta) = PRKCZ (PKC zeta) (Homo sapiens (Human), UniProt Q05513); conditions: IB35 100 nM, ATP Km app
Excerpt: as §1

RAF1 (cRAF) Y340D Y341D = RAF1 (cRAF) Y340D Y341D (Homo sapiens (Human), UniProt P04049, Y340D/Y341D); conditions: IB35 100 nM, ATP 100
Excerpt: as §1

ROCK2 = ROCK2 (Homo sapiens (Human), UniProt O75116); conditions: IB35 100 nM, ATP Km app
Chain of ROCK2 (O75116 whole entry, species assumed): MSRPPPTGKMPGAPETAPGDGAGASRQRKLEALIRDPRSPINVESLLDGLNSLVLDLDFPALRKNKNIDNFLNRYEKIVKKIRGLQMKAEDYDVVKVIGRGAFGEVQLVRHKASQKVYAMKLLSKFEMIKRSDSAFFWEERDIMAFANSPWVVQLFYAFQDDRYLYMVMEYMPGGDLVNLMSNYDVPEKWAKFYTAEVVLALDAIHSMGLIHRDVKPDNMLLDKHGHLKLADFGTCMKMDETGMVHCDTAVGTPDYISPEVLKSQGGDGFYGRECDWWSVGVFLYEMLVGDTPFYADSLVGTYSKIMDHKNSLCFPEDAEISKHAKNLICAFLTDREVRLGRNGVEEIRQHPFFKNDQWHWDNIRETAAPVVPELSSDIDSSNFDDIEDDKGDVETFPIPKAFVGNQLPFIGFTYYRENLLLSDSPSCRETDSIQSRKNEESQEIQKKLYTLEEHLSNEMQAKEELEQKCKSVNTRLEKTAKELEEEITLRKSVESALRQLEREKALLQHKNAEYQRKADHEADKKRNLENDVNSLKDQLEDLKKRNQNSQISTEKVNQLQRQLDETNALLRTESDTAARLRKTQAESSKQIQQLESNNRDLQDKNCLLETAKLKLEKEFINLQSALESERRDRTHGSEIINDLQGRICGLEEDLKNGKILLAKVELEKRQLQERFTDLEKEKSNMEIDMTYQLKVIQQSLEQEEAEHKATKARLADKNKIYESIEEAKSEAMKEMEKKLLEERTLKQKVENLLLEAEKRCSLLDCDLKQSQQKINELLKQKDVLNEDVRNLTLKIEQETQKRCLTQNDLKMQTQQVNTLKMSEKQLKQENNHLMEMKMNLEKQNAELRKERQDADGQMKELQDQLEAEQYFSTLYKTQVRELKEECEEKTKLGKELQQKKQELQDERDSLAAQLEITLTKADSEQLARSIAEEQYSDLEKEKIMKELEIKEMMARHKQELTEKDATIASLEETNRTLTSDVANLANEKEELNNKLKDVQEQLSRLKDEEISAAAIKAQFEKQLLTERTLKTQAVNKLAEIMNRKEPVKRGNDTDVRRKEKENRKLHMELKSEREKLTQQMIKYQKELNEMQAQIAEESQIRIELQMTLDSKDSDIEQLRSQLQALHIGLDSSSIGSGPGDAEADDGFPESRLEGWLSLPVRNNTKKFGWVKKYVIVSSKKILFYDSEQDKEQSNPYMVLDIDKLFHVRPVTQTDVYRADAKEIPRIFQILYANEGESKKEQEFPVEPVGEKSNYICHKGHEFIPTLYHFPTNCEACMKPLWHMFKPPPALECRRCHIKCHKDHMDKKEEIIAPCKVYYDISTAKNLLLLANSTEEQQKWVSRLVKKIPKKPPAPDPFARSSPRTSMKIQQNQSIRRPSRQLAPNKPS
Excerpt: as §1

RPS6KA1 (RSK1) = RPS6KA1 (RSK1) (Homo sapiens (Human), UniProt Q15418); conditions: IB35 100 nM, ATP Km app
Excerpt: as §1

RPS6KB1 (p70S6K) = RPS6KB1 (p70S6K) (Homo sapiens (Human), UniProt P23443); conditions: IB35 100 nM, ATP Km app
Excerpt: as §1

O=C(CNC(=O)c1cccn(Cc2ccc(F)c(F)c2)c1=O)Nc1ccc2c(c1)/C(=C/c1cnc[nH]1)C(=O)N2 [IB35, (Z)—N-(2-((3-((1H-imidazol-5-yl)methylene)-2-oxoindolin-5-yl)amino)-2-oxoethyl)-1-(3,4-difluorobenzyl)-2-oxo-1,2-dihydro pyridine-3-carboxamide] showed an inhibition at 0.1 µM (ABL1; read-out: % Inhibition 1) of 17%, an inhibition at 0.1 µM (ABL1; read-out: % Inhibition 2) of 12% and an inhibition at 0.1 µM (ABL1; read-out: % Inhibition Avg) of 14%. It also gave an inhibition at 0.1 µM (AKT2 (PKB beta); read-out: % Inhibition 1) of 0%, an inhibition at 0.1 µM (AKT2 (PKB beta); read-out: % Inhibition 2) of -9% and an inhibition at 0.1 µM (AKT2 (PKB beta); read-out: % Inhibition Avg) of -4%. The inhibition at 0.1 µM (AMPK A1/B1/G1; read-out: % Inhibition 1) was 8%, the inhibition at 0.1 µM (AMPK A1/B1/G1; read-out: % Inhibition 2) was 7% and the inhibition at 0.1 µM (AMPK A1/B1/G1; read-out: % Inhibition Avg) was 7%. For the same molecule, the inhibition at 0.1 µM (AURKA (Aurora A); read-out: % Inhibition 1) was 37%, the inhibition at 0.1 µM (AURKA (Aurora A); read-out: % Inhibition 2) was 38% and the inhibition at 0.1 µM (AURKA (Aurora A); read-out: % Inhibition Avg) was 38%. The inhibition at 0.1 µM (BRAF; read-out: % Inhibition 1) was 16%, the inhibition at 0.1 µM (BRAF; read-out: % Inhibition 2) was 17% and the inhibition at 0.1 µM (BRAF; read-out: % Inhibition Avg) was 17%. For the same molecule, the inhibition at 0.1 µM (CDC42 BPA (MRCKA); read-out: % Inhibition 1) was -1%, the inhibition at 0.1 µM (CDC42 BPA (MRCKA); read-out: % Inhibition 2) was -6% and the inhibition at 0.1 µM (CDC42 BPA (MRCKA); read-out: % Inhibition Avg) was -3%. It also gave an inhibition at 0.1 µM (CDK5/p25; read-out: % Inhibition 1) of -7%, an inhibition at 0.1 µM (CDK5/p25; read-out: % Inhibition 2) of -10% and an inhibition at 0.1 µM (CDK5/p25; read-out: % Inhibition Avg) of -8%. It also gave an inhibition at 0.1 µM (CHEK1 (CHK1); read-out: % Inhibition 1) of 10%, an inhibition at 0.1 µM (CHEK1 (CHK1); read-out: % Inhibition 2) of 2% and an inhibition at 0.1 µM (CHEK1 (CHK1); read-out: % Inhibition Avg) of 6%. For the same molecule, the inhibition at 0.1 µM (CHEK2 (CHK2); read-out: % Inhibition 1) was 1%, the inhibition at 0.1 µM (CHEK2 (CHK2); read-out: % Inhibition 2) was 8% and the inhibition at 0.1 µM (CHEK2 (CHK2); read-out: % Inhibition Avg) was 4%. The inhibition at 0.1 µM (CLK1; read-out: % Inhibition 1) was 4%, the inhibition at 0.1 µM (CLK1; read-out: % Inhibition 2) was -7% and the inhibition at 0.1 µM (CLK1; read-out: % Inhibition Avg) was -2%. It also gave an inhibition at 0.1 µM (GRK5; read-out: % Inhibition 1) of -7%, an inhibition at 0.1 µM (GRK5; read-out: % Inhibition 2) of 0% and an inhibition at 0.1 µM (GRK5; read-out: % Inhibition Avg) of -4%. The inhibition at 0.1 µM (GSK3B (GSK3 beta); read-out: % Inhibition 1) was 23%, the inhibition at 0.1 µM (GSK3B (GSK3 beta); read-out: % Inhibition 2) was 25% and the inhibition at 0.1 µM (GSK3B (GSK3 beta); read-out: % Inhibition Avg) was 24%. It also gave an inhibition at 0.1 µM (ITK; read-out: % Inhibition 1) of 17%, an inhibition at 0.1 µM (ITK; read-out: % Inhibition 2) of 12% and an inhibition at 0.1 µM (ITK; read-out: % Inhibition Avg) of 14%. It also gave an inhibition at 0.1 µM (LCK; read-out: % Inhibition 1) of 10%, an inhibition at 0.1 µM (LCK; read-out: % Inhibition 2) of 8% and an inhibition at 0.1 µM (LCK; read-out: % Inhibition Avg) of 9%. The inhibition at 0.1 µM (MAP2K2 (MEK2); read-out: % Inhibition 1) was 13%, the inhibition at 0.1 µM (MAP2K2 (MEK2); read-out: % Inhibition 2) was 6% and the inhibition at 0.1 µM (MAP2K2 (MEK2); read-out: % Inhibition Avg) was 9%. It also gave an inhibition at 0.1 µM (MAPK3 (ERK1); read-out: % Inhibition 1) of -8%, an inhibition at 0.1 µM (MAPK3 (ERK1); read-out: % Inhibition 2) of 1% and an inhibition at 0.1 µM (MAPK3 (ERK1); read-out: % Inhibition Avg) of -3%. It also gave an inhibition at 0.1 µM (MAPKAPK2; read-out: % Inhibition 1) of -2%, an inhibition at 0.1 µM (MAPKAPK2; read-out: % Inhibition 2) of 2% and an inhibition at 0.1 µM (MAPKAPK2; read-out: % Inhibition Avg) of 0%. For the same molecule, the inhibition at 0.1 µM (MARK1 (MARK); read-out: % Inhibition 1) was 20%, the inhibition at 0.1 µM (MARK1 (MARK); read-out: % Inhibition 2) was 13% and the inhibition at 0.1 µM (MARK1 (MARK); read-out: % Inhibition Avg) was 17%. For the same molecule, the inhibition at 0.1 µM (PRKACA (PKA); read-out: % Inhibition 1) was -5%, the inhibition at 0.1 µM (PRKACA (PKA); read-out: % Inhibition 2) was -5% and the inhibition at 0.1 µM (PRKACA (PKA); read-out: % Inhibition Avg) was -5%. The inhibition at 0.1 µM (PRKCB1 (PKC beta I); read-out: % Inhibition 1) was -10%, the inhibition at 0.1 µM (PRKCB1 (PKC beta I); read-out: % Inhibition 2) was -10% and the inhibition at 0.1 µM (PRKCB1 (PKC beta I); read-out: % Inhibition Avg) was -10%. For the same molecule, the inhibition at 0.1 µM (PRKCD (PKC delta); read-out: % Inhibition 1) was -2%, the inhibition at 0.1 µM (PRKCD (PKC delta); read-out: % Inhibition 2) was -12% and the inhibition at 0.1 µM (PRKCD (PKC delta); read-out: % Inhibition Avg) was -7%. For the same molecule, the inhibition at 0.1 µM (PRKCE (PKC epsilon); read-out: % Inhibition 1) was 4%, the inhibition at 0.1 µM (PRKCE (PKC epsilon); read-out: % Inhibition 2) was 3% and the inhibition at 0.1 µM (PRKCE (PKC epsilon); read-out: % Inhibition Avg) was 3%. The inhibition at 0.1 µM (PRKCZ (PKC zeta); read-out: % Inhibition 1) was -3%, the inhibition at 0.1 µM (PRKCZ (PKC zeta); read-out: % Inhibition 2) was -2% and the inhibition at 0.1 µM (PRKCZ (PKC zeta); read-out: % Inhibition Avg) was -3%. It also gave an inhibition at 0.1 µM (RAF1 (cRAF) Y340D Y341D; read-out: % Inhibition 1) of 10%, an inhibition at 0.1 µM (RAF1 (cRAF) Y340D Y341D; read-out: % Inhibition 2) of 11% and an inhibition at 0.1 µM (RAF1 (cRAF) Y340D Y341D; read-out: % Inhibition Avg) of 10%. It also gave an inhibition at 0.1 µM (ROCK2; read-out: % Inhibition 1) of 3%, an inhibition at 0.1 µM (ROCK2; read-out: % Inhibition 2) of 1% and an inhibition at 0.1 µM (ROCK2; read-out: % Inhibition Avg) of 2%. The inhibition at 0.1 µM (RPS6KA1 (RSK1); read-out: % Inhibition 1) was -3%, the inhibition at 0.1 µM (RPS6KA1 (RSK1); read-out: % Inhibition 2) was 7% and the inhibition at 0.1 µM (RPS6KA1 (RSK1); read-out: % Inhibition Avg) was 2%. The inhibition at 0.1 µM (RPS6KB1 (p70S6K); read-out: % Inhibition 1) was -3%, the inhibition at 0.1 µM (RPS6KB1 (p70S6K); read-out: % Inhibition 2) was -10% and the inhibition at 0.1 µM (RPS6KB1 (p70S6K); read-out: % Inhibition Avg) was -6%.
